The record followed here is US10052306B2 (LUC THERAPEUTICS, INC., priority 2013, dated 2018).

Experiment [1] deals with NR1/NR2B (Homo sapiens (Human), UniProt Q05586+Q13224). The experiment can be described thus: Cell assay: FDSS Ca2+ influx inhibition in HEK293 cells expressing NR1/NR2B.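 Also: Fluo-8 Ca2+ signal read on Hamamatsu FDSS 6000 after glutamate, glycine and Ca2+ challenge following 10 min compound preincubation, end/baseline fluorescence ratio compared with MK801 control.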 The note with it: Binned Activity, HEK293 cells expressing NR1/NR2B, Ca2+ influx; binned NR2B NAM IC50.
Experiment [2] addresses NR1/NR2B (Homo sapiens (Human), UniProt Q13224). The description is as above. The note with it: read-out: NR2B NAM IC50; HEK293 cells expressing NR1/NR2B, Ca2+ influx.

Molecules are shown by their SMILES.

A word on the IC50: it is the concentration at which inhibition is half-maximal.

Sequence of NR1/NR2B (Homo sapiens (Human), UniProt Q13224) (Q13224 27-1484, other chains not shown): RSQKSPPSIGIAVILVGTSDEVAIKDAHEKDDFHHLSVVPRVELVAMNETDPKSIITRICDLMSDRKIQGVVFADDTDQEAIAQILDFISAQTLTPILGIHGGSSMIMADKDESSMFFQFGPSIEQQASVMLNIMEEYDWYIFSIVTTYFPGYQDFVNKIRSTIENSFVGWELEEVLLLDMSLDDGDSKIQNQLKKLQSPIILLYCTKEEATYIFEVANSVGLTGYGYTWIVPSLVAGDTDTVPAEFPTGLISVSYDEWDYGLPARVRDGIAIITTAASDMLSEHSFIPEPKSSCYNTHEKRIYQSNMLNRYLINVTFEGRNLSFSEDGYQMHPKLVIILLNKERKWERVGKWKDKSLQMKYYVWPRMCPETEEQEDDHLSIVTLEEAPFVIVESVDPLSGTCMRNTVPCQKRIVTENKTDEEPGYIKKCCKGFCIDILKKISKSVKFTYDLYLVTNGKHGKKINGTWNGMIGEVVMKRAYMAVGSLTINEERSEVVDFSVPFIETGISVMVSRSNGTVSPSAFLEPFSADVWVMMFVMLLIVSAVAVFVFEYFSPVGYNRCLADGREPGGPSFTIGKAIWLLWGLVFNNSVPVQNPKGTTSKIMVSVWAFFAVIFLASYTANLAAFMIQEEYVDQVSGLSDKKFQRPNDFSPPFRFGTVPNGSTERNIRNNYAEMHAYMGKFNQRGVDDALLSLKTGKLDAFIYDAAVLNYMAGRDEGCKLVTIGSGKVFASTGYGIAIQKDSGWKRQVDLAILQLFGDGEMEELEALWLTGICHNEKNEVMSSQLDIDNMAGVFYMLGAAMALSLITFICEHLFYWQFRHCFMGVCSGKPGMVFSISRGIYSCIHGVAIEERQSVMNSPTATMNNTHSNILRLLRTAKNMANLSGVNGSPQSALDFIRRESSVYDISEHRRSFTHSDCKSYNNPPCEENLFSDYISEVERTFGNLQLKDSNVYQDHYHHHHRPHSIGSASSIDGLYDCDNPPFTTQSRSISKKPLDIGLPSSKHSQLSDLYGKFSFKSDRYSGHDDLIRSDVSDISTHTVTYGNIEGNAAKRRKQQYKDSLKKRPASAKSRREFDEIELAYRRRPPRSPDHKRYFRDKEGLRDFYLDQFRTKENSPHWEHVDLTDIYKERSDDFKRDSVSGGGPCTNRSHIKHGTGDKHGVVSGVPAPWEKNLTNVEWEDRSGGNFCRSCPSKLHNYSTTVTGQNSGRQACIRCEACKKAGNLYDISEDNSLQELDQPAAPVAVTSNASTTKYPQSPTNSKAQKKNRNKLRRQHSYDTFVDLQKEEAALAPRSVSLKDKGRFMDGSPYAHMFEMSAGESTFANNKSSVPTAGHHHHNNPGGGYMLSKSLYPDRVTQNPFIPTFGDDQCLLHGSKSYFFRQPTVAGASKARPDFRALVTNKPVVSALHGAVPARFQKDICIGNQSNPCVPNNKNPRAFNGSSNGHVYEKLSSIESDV
Sequence of NR1/NR2B (Homo sapiens (Human), UniProt Q05586+Q13224) (Q13224 27-1484, other chains not shown): as above

With `O=C(CN1C[C@@H]2C[C@@](O)(CC3CC3)C[C@@H]2C1)c1ccc(O)cn1` [Example 207, 2-((3aR,5r,6aS)-5-(cyclopropylmethyl)-5-hydroxyhexahydrocyclo-penta[c]pyrrol-2(1H)-yl)-1-(5-hydroxypyridin-2-yl)ethanone], the IC50 on NR1/NR2B [1] is greater than 10 µM; at NR1/NR2B [2] it was 10 µM.
For `CC(=O)Nc1ccc(C(=O)CN2C[C@@H]3C[C@@](O)(Cc4ccccc4)C[C@@H]3C2)cc1` [Example 141, N-(4-(2-((3aR,5r,6aS)-5-benzyl-5-hydroxyhexahydrocyclo-penta[c]pyrrol-2(1H)-yl)acetyl)phenyl) acetamide] the same measures were greater than 10 µM and 10 µM.
For `Cc1cc(F)ccc1C[C@]1(O)C[C@H]2CN(CC(=O)c3ccc(O)cc3)C[C@H]2C1` [Example 250, 2-((3aR,5r,6aS)-5-(4-fluoro-2-methylbenzyl)-5-hydroxyhexahydrocyclo-penta[c]pyrrol-2(1H)-yl)-1-(4-hydroxyphenyl)ethanone] the same measures were 0.1 to 1 µM and 0.137 µM.
For `COc1cccc([C@]2(O)C[C@H]3CN(C(=O)Nc4ccccc4)C[C@H]3C2)c1` [Example 29, 5-hydroxy-5-(3-methoxyphenyl)-N-phenyl-octahydrocyclopenta[c] pyrrole-2-carboxamide] the same measures were greater than 10 µM and 10 µM.
In the case of `CC(C)(C)c1ccc([C@]2(O)C[C@H]3CN(c4ccccn4)C[C@H]3C2)cc1` [Example 88, 5-(4-tert-butylphenyl)-2-(pyridin-2-yl)-octahydrocyclopenta[c] pyrrol-5-ol], the IC50 is greater than 10 µM at NR1/NR2B [1] and 10 µM on NR1/NR2B [2].
For the molecule `O=C(CN1C[C@@H]2C[C@@](O)(Cc3ccccc3)C[C@@H]2C1)c1ccc(-c2cccc(F)c2)cc1` [Example 261, 2-((3aR,5r,6aS)-5-benzyl-5-hydroxyhexahydrocyclo-penta[c]pyrrol-2(1H)-yl)-1-(3′-fluoro-[1,1′-biphenyl]-4-yl)ethanone], the figures for the IC50 against NR1/NR2B [1] and on NR1/NR2B [2] were greater than 10 µM and 10 µM, respectively.
For `Oc1ccc([C@H](O)CN2C[C@@H]3C[C@@](O)(Cc4ccccc4)C[C@@H]3C2)nc1` [Example 165, (3aR,5R,6aS)-5-benzyl-2-((R)-2-hydroxy-2-(5-hydroxypyridin-2-yl)ethyl)octahydrocyclo-penta[c]pyrrol-5-ol] the same measures were less than 0.1 µM and 0.0337 µM.
For `Cc1ccccc1C[C@]1(O)C[C@H]2CN(CC(=O)c3ccc(O)cc3)C[C@H]2C1` [Example 183, 2-((3aR,5r,6aS)-5-hydroxy-5-(2-methylbenzyl)hexahydro-cyclopenta[c]pyrrol-2(1H)-yl)-1-(4-hydroxyphenyl)ethanone], in that order: 0.1 to 1 µM and 0.145 µM.
For `O=C(Nc1ccc(F)cc1F)N1C[C@@H]2C[C@@](O)(c3ccccc3)C[C@@H]2C1` [Example 19, N-(2,4-difluorophenyl)-5-hydroxy-5-phenyl-octahydrocyclopenta[c] pyrrole-2-carboxamide] the same measures were greater than 10 µM and 10 µM.
As for `COc1ncc(-c2ccc(C(=O)CN3C[C@@H]4C[C@@](O)(Cc5ccccc5)C[C@@H]4C3)cc2)cn1` [Example 279, 2-((3aR,5r,6aS)-5-benzyl-5-hydroxyhexahydrocyclo-penta[c]pyrrol-2(1H)-yl)-1-(4-(2-methoxypyrimidin-5-yl)phenyl)ethanone], the IC50 against NR1/NR2B [1] is greater than 10 µM; at NR1/NR2B [2], 10 µM.
For `Oc1ccc([C@H](O)CN2C[C@@H]3C[C@@](O)(Cc4ccc(F)cc4)C[C@@H]3C2)nc1` [Example 256, (3aR,5R,6aS)-5-(4-fluorobenzyl)-2-((R)-2-hydroxy-2-(5-hydroxypyridin-2-yl)ethyl)octahydrocyclo-penta[c]pyrrol-5-ol], in that order: less than 0.1 µM and 0.0317 µM.
For `Cc1cccc(N2C[C@@H]3C[C@@](O)(c4ccc(C(C)(C)C)cc4)C[C@@H]3C2)n1` [Example 89, 5-(4-tert-butylphenyl)-2-(6-methylpyridin-2-yl)-octahydrocyclopenta[c] pyrrol-5-ol], in that order: greater than 10 µM and 10 µM.
In the case of `O=C(CN1C[C@@H]2C[C@@](O)(Cc3ccccc3)C[C@@H]2C1)c1ccc2[nH]nnc2c1` [Example 167, 2-[(3aR,5R,6aS)-5-benzyl-5-hydroxy-octahydrocyclopenta[c]pyrrol-2-yl]-1-(1H-1,2,3-benzotriazol-5-yl)ethan-1-one], the IC50 against NR1/NR2B [1] is greater than 10 µM; on NR1/NR2B [2], 10 µM.
For `CC(C)(C)C(=O)Nc1ccc(C(=O)CN2C[C@@H]3C[C@@](O)(Cc4ccccc4)C[C@@H]3C2)cn1` [Example 285, N-(5-(2-(5-benzyl-5-hydroxyhexahydrocyclo-penta[c]pyrrol-2(1H)-yl)acetyl)pyridin-2-yl)pivalamide], the values for the IC50 on NR1/NR2B [1] and at NR1/NR2B [2] were greater than 10 µM and 10 µM, respectively.
`Cc1cccc(-c2ccc(C(=O)CN3C[C@@H]4C[C@@](O)(CCc5ccccc5)C[C@@H]4C3)cc2)c1` [Example 277]: the IC50 at NR1/NR2B [1] is greater than 10 µM; at NR1/NR2B [2], 10 µM.
For `COc1ccc(-c2cccc(C(=O)CN3C[C@@H]4C[C@@](O)(Cc5ccccc5)C[C@@H]4C3)c2)cc1` [Example 263, 2-((3aR,5r,6aS)-5-benzyl-5-hydroxyhexahydrocyclo-penta[c]pyrrol-2(1H)-yl)-1-(4′-methoxy-[1,1′-biphenyl]-3-yl)ethanone], in that order: greater than 10 µM and 10 µM.
For `COc1cccc([C@]2(O)C[C@H]3CN(CC(=O)c4cccc(F)c4)C[C@H]3C2)c1` [Example 62, 1-(3-fluorophenyl)-2-[5-hydroxy-5-(3-methoxyphenyl)-octahydrocyclopenta[c]pyrrol-2-yl]ethan-1-one], the IC50 on NR1/NR2B [1] was greater than 10 µM; on NR1/NR2B [2], 10 µM.
For `N#Cc1cccc(NC(=O)N2C[C@H]3C[C@@H](c4ccccc4)C[C@H]3C2)c1` [Example 107, N-(3-cyanophenyl)-5-phenyl-octahydrocyclopenta[c] pyrrole-2-carboxamide], in that order: greater than 10 µM and 10 µM.
For `O=C(CN1C[C@@H]2C[C@@](O)(Cc3ccccc3)C[C@@H]2C1)c1cnc(O)cn1` [Example 187, 2-((3aR,5r,6aS)-5-benzyl-5-hydroxyhexahydrocyclo-penta[c]pyrrol-2(1H)-yl)-1-(5-hydroxypyrazin-2-yl)ethanone] the same measures were greater than 10 µM and 10 µM.
For `O=C(Nc1ccc(F)cc1)N1C[C@@H]2C[C@@](O)(c3ccccc3)C[C@@H]2C1` [Example 6] the same measures were greater than 10 µM and 10 µM.
In the case of `O=C(Nc1ccc(Cl)c(C(F)(F)F)c1)N1C[C@@H]2C[C@@](O)(Cc3ccccc3)C[C@@H]2C1` [Example 120, (3aR,5r,6aS)-5-benzyl-N-(4-chloro-3-(trifluoromethyl)phenyl)-5-hydroxyhexahydrocyclo-penta[c]pyrrole-2(1H)-carboxamide], the IC50 against NR1/NR2B [1] is greater than 10 µM; on NR1/NR2B [2] it was 10 µM.
With `O=C(CN1C[C@@H]2C[C@@](O)(Cc3ccccc3)C[C@@H]2C1)c1cnc(OCc2ccccc2)cn1` [Example 162, 2-((3aR,5r,6aS)-5-benzyl-5-hydroxyhexahydrocyclo-penta[c]pyrrol-2(1H)-yl)-1-(5-(benzyloxy)pyrazin-2-yl)ethanone], the IC50 was greater than 10 µM against NR1/NR2B [1] and 10 µM at NR1/NR2B [2].
For `O=C(CN1C[C@@H]2C[C@@](O)(Cc3c(F)cccc3F)C[C@@H]2C1)c1ccc(O)cn1` [Example 237, 2-[(3aR,5R,6aS)-5-[(2,6-difluorophenyl)methyl]-5-hydroxy-octahydrocyclopenta[c]pyrrol-2-yl]-1-(5-hydroxypyridin-2-yl)ethan-1-one] the same measures were 1 to 10 µM and 1.91 µM.
For `O=C(Nc1ccccc1C(F)(F)F)N1C[C@@H]2C[C@@](O)(Cc3ccccc3)C[C@@H]2C1` [Example 127, (3aR,5r,6aS)-5-benzyl-5-hydroxy-N-(2-(trifluoromethyl)phenyl) hexahydrocyclopenta[c] pyrrole-2(1H)-carboxamide] the same measures were greater than 10 µM and 10 µM.
For `CO[C@@]1(Cc2ccccc2)C[C@H]2CN(CC(=O)c3ccc(O)c(F)c3)C[C@H]2C1` [Example 170, 2-((3aR,5r,6aS)-5-benzyl-5-methoxyhexahydrocyclo-penta[c]pyrrol-2(1H)-yl)-1-(3-fluoro-4-hydroxyphenyl)ethanone] the same measures were 0.1 to 1 µM and 0.132 µM.
`CC(C)(C)OC(=O)Nc1ccc(C(=O)CN2C[C@@H]3C[C@@](O)(Cc4ccccc4)C[C@@H]3C2)cn1` [Example 284, tert-butyl (5-(2-(5-benzyl-5-hydroxyhexahydrocyclo-penta[c]pyrrol-2(1H)-yl)acetyl)pyridin-2-yl)carbamate]: the values for the IC50 on NR1/NR2B [1] and on NR1/NR2B [2] were greater than 10 µM and 10 µM, respectively.
With `O=C(CN1C[C@@H]2C[C@@](O)(Cc3ccc(F)cc3)C[C@@H]2C1)c1ccc(O)c(F)c1` [Example 169, 1-(3-fluoro-4-hydroxyphenyl)-2-((3aR,5r,6aS)-5-(4-fluorobenzyl)-5-hydroxyhexahydrocyclo-penta[c]pyrrol-2(1H)-yl)ethanone], the IC50 against NR1/NR2B [1] was 0.1 to 1 µM; at NR1/NR2B [2], 0.117 µM.
For the molecule `O=C(CN1C[C@@H]2C[C@@](O)(Cc3ccccc3)C[C@@H]2C1)c1ccc(-c2ccccn2)cc1` [Example 266, 2-((3aR,5r,6aS)-5-benzyl-5-hydroxyhexahydrocyclo-prenta[c]pyrrol-2(1H)-yl)-1-(4-(pyridin-2-yl)phenyl)ethanone], the IC50 against NR1/NR2B [1] was greater than 10 µM; on NR1/NR2B [2], 10 µM.
